The values below are quoted from earlier work in US20120322767A1, “FORMULATIONS OF BISPHOSPHONATES AND VITAMIN D SUIUTABLE FOR INTERMITTENT INTRAMUSCULAR AND SUBCUTANEOUS ADMINISTRATION” (priority 2009, published 2012).

Bounds are passed on as bounds.

The conditions of series [1]: humans, ratio of urinary or plasma concentrations (AUC) after intravenous and oral administration.
For series [2] the following is noted: man, oral, 100,000 IU, maintained for two months.

Turning to `O=P(O)(O)C(Cl)(Cl)P(=O)(O)O` [clodronate], the Oral bioavailability in series [1] is given as 1-2%. `CC(O)(P(=O)(O)O)P(=O)(O)O` [etidronate]: the Oral bioavailability in series [1] is listed as 3-7%. Turning to `NCCC(O)(P(=O)(O)O)P(=O)(O)O` [pamidronate], the Oral bioavailability in series [1] was about 0.3%. With vitamin D, the “Serum levels of calcidiol” value in series [2] was over 80 nM.
